According to patent US20250129095A1, “ANNULATED 2-AMINO-3-CYANO THIOPHENES AND DERIVATIVES FOR THE TREATMENT OF CANCER” (Boehringer Ingelheim Int'l GmbH Corp., priority 2021, published 2025):

What was measured:
KRAS (G12D)::SOS1 = molecular target: T1, KRAS (G12D)::SOS1 (Homo sapiens, UniProt P01116, G12D); assay: KRAS::SOS1 AlphaScreen binding assay, KRAS G12D; details: read-out: KRASG12D IC50
T1 construct: KRAS (G12D) 1-169, N-terminal 6His-tag, C-terminal avi-tag; 6His-tag (N); purchased Xtal BioStructures, Inc. (KRAS); Viva Biotech Ltd (SOS1)
T1 sequence (P01116 1-169 isoform P01116-2 G12D): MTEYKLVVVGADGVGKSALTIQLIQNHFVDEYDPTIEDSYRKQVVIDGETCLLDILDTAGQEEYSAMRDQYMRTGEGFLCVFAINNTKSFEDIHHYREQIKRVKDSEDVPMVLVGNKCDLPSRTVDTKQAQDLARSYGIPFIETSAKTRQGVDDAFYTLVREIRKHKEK
Source text: This assay can be used to examine the potency with which compounds according to the invention binding to (mutated) KRAS inhibit the protein-protein interaction between SOS1 and (mutated) KRAS e.g., KRAS WT, KRAS G12C, KRAS G12D, KRAS G12V, KRAS G13D. […] Low IC50 values in this assay setting are indicative of strong inhibition of protein-protein interaction between SOS1 and KRAS:
These assays measure the inhibitory effect of compounds on KRAS mutant protein-protein interactions using the Alpha Screen technology by Perkin Elmer
The following (mutant) enzyme forms of KRAS and interacting proteins are used in these assays at the given concentrations: • KRAS (G12D) 1-169, N-terminal 6His-tag, C-terminal avi-tag (Xtal BioStructures, Inc.); final assay concentration 10 nM and SOS1 564-1049, N-terminal 229 GST-tag, TEV cleavage site (Viva Biotech Ltd); final assay concentration 5 nM; • KRAS (G12C) 1-169, N-terminal 6His-tag for purification, cleaved off, C-terminal avi-tag, biotinylated, mutations: C51S, C80L, C118S (in house); final assay concentration 7.5 nM and SOS1 564-1049, N-terminal 229 GST-tag, TEV cleavage site (Viva Biotech Ltd); final assay concentration 5 nM; • KRAS (G12V) 1-169, N-terminal 6His-tag for purification, cleaved off, C-terminal avi-tag, biotinylated, TEV cleavage site, mutation: C118S, GDP loaded (in house); final assay concentration 10 nM and SOS1 564-1049, N-terminal 229 GST-tag, TEV cleavage site (Viva Biotech Ltd); final assay concentration 10 nM; • KRAS (G13D) 1-169, N-terminal 6His-tag for purification, cleaved off, C-terminal avi-tag, biotinylated, TEV cleavage site, mutation: C118S, GDP loaded (in house); final assay concentration 10 nM and SOS1 564-1049, N-terminal 229 GST-tag, TEV cleavage site (Viva Biotech Ltd); final assay concentration 10 nM; • KRAS (WT) 1-169, N-terminal 6His-tag for purification, cleaved off, C-terminal avi-tag, biotinylated, TEV cleavage site, mutation: C118S, GDP loaded (in house); final assay concentration 10 nM and SOS1 564-1049, N-terminal 229 GST-tag, TEV cleavage site (Viva Biotech Ltd); final assay concentration 10 nM.
Test compounds dissolved in DMSO are dispensed onto assay plates (Proxiplate 384 PLUS, white, PerkinElmer; 6008289) using an Access Labcyte Workstation with the Labcyte Echo 55×. For the chosen highest assay concentration of 100 μM, 150 nL of compound solution are transferred from a 10 mM DMSO compound stock solution. A series of eleven fivefold dilutions per compound are transferred to the assay plate, compound dilutions are tested in duplicates. DMSO are added as backfill to a total volume of 150 nL.
The assays run on a fully automated robotic system in a darkened room below 100 Lux. To 150 nl of compound dilution 10 μl of a mix including KRAS mutant protein, SOS1 (final assay concentrations see above) and GDP nucleotide (Sigma G7127; final assay concentration 10 μM) in assay buffer (1×PBS, 0.1% BSA, 0.05% Tween 20) are added into columns 1-24.
After 30 minutes incubation time 5 μl of Alpha Screen bead mix in assay buffer are added into columns 1-23. Bead mix consists of AlphaLISA Glutathione Acceptor Beads (PerkinElmer, Cat No AL109) and AlphaScreen Streptavidin Donor Beads (PerkinElmer Cat No 6760002) in assay buffer at a final assay concentration of 10 μg/ml each.
Plates are kept at room temperature in a darkened incubator. After an additional 60 minutes incubation time the signal is measured in a PerkinElmer Envision HTS Multilabel Reader using the AlphaScreen specs from PerkinElmer.
Each plate contains up to 16 wells of a negative control depending on the dilution procedure (platewise or serial) (DMSO instead of test compound; with KRAS mutant::SOS1 GDP mix and bead mix; column 23) and 16wells of a positive control (DMSO instead of test compound; with KRAS mutant::SOS1 GDP mix w/o bead mix; column 24).
As internal control known inhibitors of KRAS mutant::SOS1 interaction can be measured on each compound plate. […]

NCI-H358 cells = assay: NCI-H358 CTG proliferation assay (120 h) (NSCLC, G12C); assay type: cell-based; details: Homo sapiens
Protocol: Additional Proliferation Assays with Mutant Cancer Cell Lines • NCI-H358 CTG proliferation assay (120 h) (NSCLC, G12C)
NCI-H358 cells (ATCC No. CRL-5807) are dispensed into black 384-well plates, flat and clear bottom (Greiner, PNr. 781091) at a density of 200 cells per well in 60 μl RPMI-1640 ATCC-Formulation (Gibco #A10491)+10% FCS (fetal calf serum). […] For the TO time point measurement, untreated cells are analyzed at the time of compound addition. Plates are incubated for 120 h, and cell viability is measured using CellTiter-Glo luminescent cell viability reagent (Promega product code G7570). Viability (stated as percent of control) is defined as relative luminescence units RLU of each well divided by the RLU of cells in DMSO controls.

NCI-H2122 cells = assay: NCI-H2122 CTG proliferation assay (120 h) (NSCLC, G12C); assay type: cell-based; details: Homo sapiens
Protocol: The CTG assay is designed to measure quantitatively the proliferation of NCI-H2122 cells (ATCC CRL-5985), using the CellTiter Glow Assay Kit (Promega G7571). Cells are grown in RPMI medium (ATCC) supplemented with Fetal Calf Serum (Life Technologies, Gibco BRL, Cat. No. 10270-106). On “day 0” 200 NCI-H2122 cells are seeded in 60 μL RPMI ATCC+10% FCS+Penstrep in a black 384-well plate, flat and clear bottom (Greiner, PNr. 781091). Cells are then incubated in the plates at 37° C. in a CO2 incubator overnight. On day 1, compounds (10 mM stock in DMSO) are added with the ECHO acoustic liquid handler system (Beckman Coulter), including DMSO controls. Plates are incubated for 120 h, and cell viability is measured using CellTiter-Glo luminescent cell viability reagent (Promega product code G7570). Viability (stated as percent of control) is defined as relative luminescence units RLU of each well divided by the RLU of cells in DMSO controls. […] values are determined from viability measurements by non-linear regression using a four parameter model. • AsPC-1 CTG proliieradon assay (120 h) (pancreatic cancer, G12D)

Compound	IC50 (KRAS (G12D)::SOS1) [nM]	IC50 (NCI-H358 cells) [nM]	IC50 (NCI-H2122 cells) [nM]
C[C@H](Oc1cc(OCC2(N(C)C)COC2)nc(-c2onc3c2CCC[C@@]32CCCc3sc(N)c(C#N)c32)n1)[C@@H]1CCCN1C [Example I-8]	2	76	1260
COc1c(OCC2(N(C)C)COC2)nc(-c2noc3c2CCC[C@@]32CCCc3sc(N)c(C#N)c32)nc1O[C@@H](C)[C@@H]1CCCN1C [II-25]	1		389
C[C@H](Oc1cc(NCC2COC2)nc(-c2noc3c2CCC[C@@]32CCCc3sc(N)c(C#N)c32)n1)[C@@H]1CCCN1C [II-11]	1		2130
C[C@H](Oc1cc(O[C@@H]2CNC2(C)C)nc(-c2noc3c2CCC[C@@]32CCCc3sc(N)c(C#N)c32)n1)[C@@H]1C[C@@H](F)CN1C [II-31]	1	119	1210
C[C@H](Oc1cc(N[C@H]2CCOC2)nc(-c2onc3c2CCC[C@@]32CCCc3sc(N)c(C#N)c32)n1)[C@@H]1CCCN1C [Example I-4]	4	2280	2390
C[C@H](Oc1cc(O[C@H]2CN(C)C(C)(C)C2)nc(-c2noc3c2CCC[C@@]32CCCc3sc(N)c(C#N)c32)n1)[C@@H]1CCCN1C [II-19]	1	3270	1460
C[C@H]1CN(C)CCCN1c1cc(O[C@@H]2CNC2(C)C)nc(-c2noc3c2CCC[C@@]32CCCc3sc(N)c(C#N)c32)n1 [II-28]	1	952	9740
C[C@H](Oc1cc(OCC2(N(C)C)CC2)nc(-c2noc3c2CCC[C@@]32CCCc3sc(N)c(C#N)c32)n1)[C@@H]1CCCN1C [II-21]	1		2200
COC[C@H](C)Nc1cc(O[C@@H](C)[C@@H]2CCCN2C)nc(-c2onc3c2CCC[C@@]32CCCc3sc(N)c(C#N)c32)n1 [Example I-5]	12		
C[C@H](Oc1cc(O[C@@H]2CNC2(C)C)nc(-c2noc3c2CCC[C@@]32CCCc3sc(N)c(C#N)c32)n1)[C@@H]1CCCN1C [II-9]	1	69	1250
C[C@H](Oc1cc(Sc2ncccn2)nc(-c2onc3c2CCC[C@@]32CCCc3sc(N)c(C#N)c32)n1)[C@@H]1CCCN1C [Example I-7]	6	5620	3610
C[C@H](Oc1cc(OCC2(N(C)C)COC2)nc(-c2noc3c2CCC[C@@]32CCCc3sc(N)c(C#N)c32)n1)[C@@H]1CCCN1C [II-22]	1		1710
C[C@H](Oc1cc(Nc2ccccn2)nc(-c2onc3c2CCC[C@@]32CCCc3sc(N)c(C#N)c32)n1)[C@@H]1CCCN1C [Example I-6]	4	1360	1120
C[C@H](Oc1cc(Oc2cncnc2)nc(-c2onc3c2CCC[C@@]32CCCc3sc(N)c(C#N)c32)n1)[C@@H]1CCCN1C [Example I-3]	1		2280
C[C@H](Oc1cc(N(C)C)nc(-c2noc3c2CCC[C@@]32CCCc3sc(N)c(C#N)c32)n1)[C@@H]1CCCN1C [II-10]	2		2420
C[C@H](Oc1cc(N(C)CCN(C)C)nc(-c2noc3c2CCC[C@@]32CCCc3sc(N)c(C#N)c32)n1)[C@@H]1CCCN1C [II-20]	2		4700
C[C@H](Oc1cc(Oc2nccs2)nc(-c2onc3c2CCC[C@@]32CCCc3sc(N)c(C#N)c32)n1)[C@@H]1CCCN1C [Example I-1]	2		1470

Results, then the compound that gave them:

IC50 (KRAS (G12D)::SOS1) [nM]	IC50 (NCI-H358 cells) [nM]	IC50 (NCI-H2122 cells) [nM]	Compound
3	123	847	C[C@H](Oc1cc(Nc2ccncn2)nc(-c2noc3c2CCC[C@@]32CCCc3sc(N)c(C#N)c32)n1)[C@@H]1CCCN1C [II-15]
3	558	1420	C[C@H](Oc1cc(Nc2cnccn2)nc(-c2noc3c2CCC[C@@]32CCCc3sc(N)c(C#N)c32)n1)[C@@H]1CCCN1C [II-14]
1	178	715	C[C@H](Oc1cc(Oc2cncnc2)nc(-c2noc3c2CCC[C@@]32CCCc3sc(N)c(C#N)c32)n1)[C@@H]1CCCN1C [II-1]
2	775	1650	C[C@H](Oc1cc(Nc2ncccn2)nc(-c2noc3c2CCC[C@@]32CCCc3sc(N)c(C#N)c32)n1)[C@@H]1CCCN1C [II-17]
2	146	532	C[C@H](Oc1cc(Nc2ncco2)nc(-c2noc3c2CCC[C@@]32CCCc3sc(N)c(C#N)c32)n1)[C@@H]1CCCN1C [II-13]
2	430	822	C[C@H](Oc1cc(Nc2cccnn2)nc(-c2noc3c2CCC[C@@]32CCCc3sc(N)c(C#N)c32)n1)[C@@H]1CCCN1C [II-18]
2	275	275	C[C@H](Oc1cc(Oc2ccon2)nc(-c2noc3c2CCC[C@@]32CCCc3sc(N)c(C#N)c32)n1)[C@@H]1CCCN1C [II-3]
6	819	1740	C[C@H](Oc1cc(Nc2nccs2)nc(-c2noc3c2CCC[C@@]32CCCc3sc(N)c(C#N)c32)n1)[C@@H]1CCCN1C [II-12]
1		740	C[C@H](Oc1cc(Oc2cccnc2)nc(-c2onc3c2CCC[C@@]32CCCc3sc(N)c(C#N)c32)n1)[C@@H]1CCCN1C [Example I-2]
3	440		C[C@H](Oc1cc(Nc2ccccn2)nc(-c2noc3c2CCC[C@@]32CCCc3sc(N)c(C#N)c32)n1)[C@@H]1CCCN1C [II-16]
1		997	C[C@H](Oc1cc(Oc2cnccn2)nc(-c2noc3c2CCC[C@@]32CCCc3sc(N)c(C#N)c32)n1)[C@@H]1CCCN1C [II-7]
